In data set [1] the test system is human CYPs in human liver microsomes. Put plainly: Chemical inhibitor phenotyping of 5F-APINACA reactions, human liver microsomes. The class given is in vitro ADME. To be noted: 25 µM 5F-APINACA; for effect of inhibitor on formation of 5F-APINACA metabolites: 0.1 mg/mL HLM, 1000 µM ABT, 1 µM ketoconazole. Here is the method:
(§1) Inhibitor phenotyping experiments were carried out to qualitatively identify probable P450 isozymes catalyzing 5F-APINACA metabolic pathways present in our mouse and human liver microsome studies. Reactions contained 0.1 mg/mL protein (MLM or HLM), 25 µM 5F-APINACA, specific CYP inhibitors, 0.25% methanol, 1% acetonitrile, 1.0 mM NADPH-regenerating system, and 100 mM phosphate buffer, pH 7.4. […] For each experiment, the following were included as final concentrations: 10 µM furafylline for CYP1A2, 2 µM tranylcypromine (TCP) for CYP2A6, 3 µM ticlopidine (TIC) for CYP2B6, 16 µM montelukast (MTK) for CYP2C8, 10 µM sulfaphenazole (SPA) for CYP2C9, 16 µM (+)-N-3-benzylnirvanol (NBZ) for CYP2C19, 2 µM quinidine (QND) for CYP2D6, 30 µM 4-methylpyrazole (4MP) for CYP2E1, 1 µM ketoconazole (KCZ) for CYP3A4, and 1000 µM ABT for all CYPs. Each inhibitor stock solution (except FUR) was prepared in potassium phosphate buffer pH 7.4 with 1% acetonitrile (final) as a co-solvent. After a preincubation period of 15 min with shaking, the reactions were initiated with the addition of a NADPH-regenerating system and shaken. For FUR, the inhibitor was prepared in methanol and a microsomal reaction was carried out at 10 µM for 10 min prior to addition of 5F-APINACA. After 30 min, all reactions were quenched, processed, and analyzed by HPLC as previously described. The resultant values were normalized to reaction rates observed in absence of inhibitors to yield a percent inhibition value.
Sample reactions were analyzed to quantitate metabolites by absorbance. Analytes were separated on a Waters XBridge BEH C18 3.5 μM column (4.6 mm × 100 mm) using an Agilent 1100 series HPLC instrument equipped with a VWD detector (280 nm). The mobile phase consisted of solvent A (10% solvent B, 90% water) and solvent B (0.1% formic acid/acetonitrile). A gradient method started at 80% solvent A for the first minute, then decreased to 70% for the next 6 min. […] Parent drug and metabolite responses were normalized to the internal standard acenocoumarol and quantitated using a standard curve generated with 5OH-APINACA. The absorbance response corresponds to the indazole ring, which remained unmodified in these reactions, so that the relative absorbance response for all analytes were approximately the same, making inference for quantitation purposes possible.
(§2) Various statistical approaches were employed among the experimental studies to identify the most likely models for explaining the data or establish the significance of the findings. For the explicit kinetic models, the best-fit kinetic model and corresponding constants were determined using the extra sum-of-squares F test. […]
Background: Liver microsomes are vesicles of endoplasmic reticulum, rich in cytochrome P450 enzymes.

For data set [2], the system named is pooled human liver microsomes (HLM150). Put plainly: Steady-state kinetics for 5F-APINACA metabolism by pooled human liver microsomes. The class given is in vitro ADME. Here is the method: (§3) The in vitro 5F-APINACA analyses relied on reactions with human liver microsomes 150 (HLM150) as a model for the average adult human liver and CD-1 mouse liver microsomes as the standard for SCB studies. In a 96-half-well microplate, reaction conditions included human or mouse liver microsomes in 100 mM potassium phosphate buffer pH 7.4, 0.1% methanol (co-solvent), and 5F-APINACA concentrations ranging from 0 to 250 µM. The microplates were preincubated for 15 min at 37 °C with shaking at 350 rpm using a BMG Labtech THERMOstar incubator (Ortenberg, Germany). The addition of an NADPH-regenerating system (4 U/mL glucose-6-phosphate dehydrogenase, 12 mM glucose 6-phosphate, 12 mM MgCl2, 4 mM NADP^+) initiated the reaction. Reactions were quenched by adding an equal volume of ice-cold acetonitrile containing an internal standard (2 μM acenocoumarol final). Samples were chilled on ice for 10 min to optimize precipitation of proteins in phosphate buffer. After 3500 rpm centrifugation at 4 °C for 15 min using a Sorvall ST 16R centrifuge (Thermo Scientific; Waltham, MA, USA), the supernatant was transferred to HPLC vials for HPLC analyses. Standards for metabolite quantifications were prepared with human or mouse liver microsomes in 100 mM potassium phosphate buffer pH 7.4, 0.1% methanol (co-solvent), and 5OH-APINACA concentrations ranging from 0 to 15 µM. The microplates were preincubated for 15 min at 37 °C with shaking at 350 rpm. Reactions were initiated upon addition of the NADPH-regenerating system or 100 mM potassium phosphate as a negative control. For kinetic studies, initial control experiments were carried out to determine the lowest protein concentration and optimal reaction time within the linear response range for all observed metabolites reflecting steady-state conditions. Each set of steady-state reactions were performed at least in triplicate and replicated two times at a minimum. The composition of reactions was determined by liquid chromatographic analysis involving detection of analytes via UV/visible absorbance and mass spectroscopy (Section 2.5).
(§4) We employed explicit equations and numerical methods to model kinetic profiles. In the first case, metabolite levels were used to calculate initial reaction rates for plotting against substrate concentration with GraphPad Prism 9.2 from GraphPad Software, Inc. (San Diego, CA, USA). […] For the numerical methods, ordinary differential equations (ODEs) describing single-substrate (ES) and multi-substrate (ESS) binding kinetics were initially used to fit the models to the primary metabolite formation datasets. The AICc was used to determine the most appropriate model for the same dataset. Predicted parameter estimates from the most appropriate model were then used as initial parameter estimates for a variety of enzyme–substrate–sequential metabolism (ESP1P2P3) models. Schemes included fast- and slow-release rates of metabolite P2 from the enzyme site, either after the first binding event, the second binding event, or both events. A final best-fit model was selected based on AICc values, weighted residuals, and parameter estimate errors. For comparison of all multi-substrate-sequential metabolism models, including the final integrated model, all metabolite data were used simultaneously for model fitting. All association rate constants were fixed at 270 μM^−1 min^−1. When any rate constant within the model had to be held constant, a sensitivity analysis was performed over a range of values to ensure the validity of the results. Based on preliminary model fitting attempts, consistent enzyme kinetic schemes were developed for fitting to both human and CD-1 mouse liver microsomal reaction datasets. Mathematica version 12.3 (Wolfram Research, Champaign, IL, USA) was used for model fitting. The ODEs were numerically solved with NDSolve to provide interpolated functions of each enzyme species. […]

For data set [3], the system named is CD-1 mouse liver microsomes. In words: Steady-state kinetics for 5F-APINACA metabolism by CD-1 mouse liver microsomes. The class given is in vitro ADME. Here is the method: as §3, §4
A further data set deals with mice. On the set-up: method as in PMID 30420360, PMID 32413436. To be noted: with 1-aminobenzotriazole (ABT); cited from earlier work.
Data set [4] has as its system mouse Cyps in CD-1 mouse liver microsomes. In words: Chemical inhibitor phenotyping of 5F-APINACA reactions, CD-1 mouse liver microsomes. The class given is in vitro ADME. To be noted: 25 µM 5F-APINACA. How it is done:
as §1, with “For FUR, the inhibitor was prepared in methanol and a microsomal reaction was carried out at 10 µM for 10 min prior to addition of 5F-APINACA.” left out, “The resultant values were normalized to reaction rates observed in absence of inhibitors to yield a percent inhibition value.” left out
Sample reactions were analyzed to quantitate metabolites by absorbance. […] Parent drug and metabolite responses were normalized to the internal standard acenocoumarol and quantitated using a standard curve generated with 5OH-APINACA. The absorbance response corresponds to the indazole ring, which remained unmodified in these reactions, so that the relative absorbance response for all analytes were approximately the same, making inference for quantitation purposes possible.
as §2

Setting [5] is: global fit to differential rate equations, calculated from micro-rate constants, parentheses standard error.
The mark [6] stands for this setting: global fit to differential rate equations, parentheses standard error.
[7] abbreviates: global fit to differential rate equations, second substrate binding (ESS), parentheses standard error.
Where [8] appears, read: formation of the metabolite from 5F-APINACA, parentheses 95% confidence interval.
[9] abbreviates: Combined adamantyl hydroxylation pathway, parentheses 95% confidence interval.

In the case of `Nn1nnc2ccccc21` [ABT, 1-aminobenzotriazole, reference compound], in data set [1], the “effect of inhibitor on formation of 5F-APINACA metabolites” value is “completely blocked the formation of all metabolites”.

In the case of `O=C(NC12CC3CC(CC(C3)C1)C2)c1nn(CCCCCO)c2ccccc12` [5OH-APINACA], the Vmax was 465 (446–485) pmol min^−1 mg protein^−1 in data set [2] (formation of the metabolite from 5F-APINACA, 0.1 mg/mL protein, parentheses 95% confidence interval) and 690 (650–730) pmol min^−1 mg protein^−1 in data set [3] (setting [8]). Besides, the Km1 result in data set [2] (setting [5]) is recorded as “((k2 + k3 + k4)/k1) 5.69 (0.35) µM”; in data set [3] (setting [5]), “((k2 + k3 + k4)/k1) 3.75 (0.21) µM”. Also, the kcat1/Km1 in data set [2] (setting [6]) is reported as 0.193 (0.015) mL min^−1 nmol^−1; in data set [3] (setting [6]), 0.238 (0.017) mL min^−1 nmol^−1. Besides, the kcat1 entry in data set [2] (global fit to differential rate equations, rates normalized to total CYP (0.38 μM), parentheses standard error) is recorded as “k3 1.10 (0.35) min^−1”; in data set [3] (global fit to differential rate equations, rates normalized to total CYP (0.67 μM), parentheses standard error), “k3 0.89 (0.04) min^−1”. In addition, the figures for the Km2 result in data set [2] (setting [7]) and in data set [3] (setting [7]) were “((k6 + k7 + k8)/k5) 181 (10) µM” and “((k6 + k7 + k8)/k5) 122 (6) µM”, respectively. Further, the kcat2 entry in data set [2] (setting [7]) is listed as “k7 1.23 (0.1) min^−1”; in data set [3] (setting [7]) it was “k7 1.17 (0.05) min^−1”. Also, the kcat2/Km2 is 0.0065 (0.0013) mL min^−1 nmol^−1 in data set [2] (setting [7]) and 0.0096 (0.0006) mL min^−1 nmol^−1 in data set [3] (setting [7]). Besides, the “h (Hill coefficient)” value in data set [3] (setting [8]) is 1.4 (1.0–1.8).

As to `CC(=O)N1CCN(c2ccc(OCC3COC(Cn4ccnc4)(c4ccc(Cl)cc4Cl)O3)cc2)CC1` (centres unmarked) [ketoconazole, reference compound], in data set [1], the “effect of inhibitor on formation of 5F-APINACA metabolites” value is on record as “inhibition of these pathways”.

In general, Km refers to the substrate concentration at which the rate is half of its maximum. For “N-(1-adamantyl)-1-(5-pentyl)-1H-indazole-3-carboxamide [5F-APINACA]”, in data set [2] (setting [9]), the “Ki (substrate inhibition)” value was 300 (150–790) µM, the Km is 3.3 µM and the Vmax is 400 (330–510) pmol min^−1 mg protein^−1. Moreover, in data set [1] (chemical inhibitor phenotyping), the “dominant isozyme for both pathways” value is recorded as “CYP3A4”; the “isozymes with minor contributions to metabolism” value was “CYP2C8, 2C19, and 2D6”. The “hypothermia in mice on suppression of metabolism by pan-CYP inhibitor ABT” value in the data set with mice is “increased hypothermia”. Also, the “contribution of CYPs to metabolism” value in data set [4] (CD-1 microsomes) was “sole role of CYPs”. In data set [4] (human CYP inhibitors), the “dominant isozyme carrying out metabolic reactions” value is “Cyp3a11”. Also, the “other dominant contributors to adamantyl hydroxylation, but minor contributors to oxidative defluorination” value in data set [4] (implicated by inhibitor for CYP2C19) is “Cyp2c37, Cyp2c50, and Cyp2c54”. Besides, in data set [3] (setting [9]), the “Ki (substrate inhibition)” value is listed as 220 (74–1300) µM and the Vmax is 465 (330–730) pmol min^−1 mg protein^−1. Also, in data set [3] (Combined adamantyl hydroxylation pathway, parentheses 95% confidence interval, read-out: Km or Kh), the Km came out at 3.8 µM.

The values are drawn from paper PMC9413144, “Similar 5F-APINACA Metabolism between CD-1 Mouse and Human Liver Microsomes Involves Different P450 Cytochromes” (Metabolites, 2022).
